Some test systems named below: HOP-62 NSCLC; HT29 colon; K-562 leukemia; OVCAR-3 ovarian; RPMI-8226 leukemia; SR leukemia; UACC-257 melanoma; UACC-62 melanoma.
Holding throughout (experiment): inhibition of tumour cell growth, NCI panel, 48 h

SMILES strings stand for the structures.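 96-well plates; 48 h exposure; 5 concentrations. Endpoints by linear interpolation between flanking doses. Not reached: highest tested concentration assigned. The concentration for 50% growth inhibition is given as GI50. TGI denotes the concentration required for complete inhibition of growth.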

On to `C=C1CCC2(C#N)[C@H]3[C@H](CC[C@@H]2C)[C@@H](C)C[C@@H](CC(C)(C)NC(=O)CN2CCC2=O)[C@H]13` (stereo partly specified), for which the GI50 in the experiment with HOP-62 NSCLC is 12.3 µM; with HT29 colon, 10.5 µM; in the experiment on K-562 leukemia, 3.69 µM; with OVCAR-3 ovarian, 3.72 µM; in the experiment on RPMI-8226 leukemia, 2.87 µM; in the experiment on SR leukemia, 4.02 µM. Moreover, the GI50 in the experiment with UACC-257 melanoma was 5.4 µM; in the experiment on UACC-62 melanoma it was 6.54 µM. In addition, the TGI in the experiment on HOP-62 NSCLC was 29 µM; in the experiment on HT29 colon, 24.8 µM; in the experiment on K-562 leukemia, 53.1 µM; in the experiment on OVCAR-3 ovarian, 15 µM; with RPMI-8226 leukemia it was 15.9 µM; in the experiment with SR leukemia it was 23.6 µM. The figures for the TGI in the experiment on UACC-257 melanoma and in the experiment on UACC-62 melanoma were 26.7 µM and 20.1 µM, respectively.

`CCN(c1cc(-c2ccc(CN3CCOCC3)cc2)cc(C(=O)NCc2c(C)cc(C)[nH]c2=O)c1C)C1CCOCC1`: the GI50 is 30.7 µM in the experiment with HOP-62 NSCLC; 15.7 µM in the experiment with HT29 colon; 32.6 µM with K-562 leukemia; 25 µM in the experiment with OVCAR-3 ovarian; 20 µM with RPMI-8226 leukemia; 21.7 µM in the experiment with SR leukemia. For the same molecule, the values for the GI50 in the experiment with UACC-257 melanoma and with UACC-62 melanoma were 16.2 µM and 16 µM, respectively. Besides, the TGI with HOP-62 NSCLC was 99.2 µM; in the experiment with HT29 colon it was 35.6 µM; in the experiment with K-562 leukemia it was more than 100 µM; in the experiment with OVCAR-3 ovarian, more than 54.6 µM; with RPMI-8226 leukemia, more than 59.8 µM; with SR leukemia, 58.2 µM. In addition, the values for the TGI with UACC-257 melanoma and in the experiment with UACC-62 melanoma were 33.5 µM and 31.6 µM, respectively.

Consider `COc1cc2c(cc1O)CC1c3c(cc(O)c(OC)c3-2)CCN1C` (stereo unspecified), for which the TGI in the experiment with HOP-62 NSCLC, with HT29 colon, in the experiment with K-562 leukemia, in the experiment with OVCAR-3 ovarian, in the experiment with RPMI-8226 leukemia and in the experiment with SR leukemia was more than 100 µM each time. The TGI with UACC-257 melanoma and in the experiment with UACC-62 melanoma was more than 100 µM in each case.

In the case of `O=c1cc(N/N=C/c2ccc(F)cc2)c2cc(Cl)ccc2[nH]1`, the GI50 in the experiment with HOP-62 NSCLC is 20.7 µM; in the experiment with HT29 colon it was 23.1 µM; with K-562 leukemia, 13.2 µM; with OVCAR-3 ovarian it was 24.8 µM; with RPMI-8226 leukemia, 17 µM; with SR leukemia it was 24.5 µM. Also, the GI50 with UACC-257 melanoma is 15.5 µM; in the experiment on UACC-62 melanoma, 16.7 µM. Moreover, the TGI with HOP-62 NSCLC is more than 100 µM; in the experiment with HT29 colon it was more than 100 µM; in the experiment with K-562 leukemia, 93.2 µM; in the experiment on OVCAR-3 ovarian it was more than 100 µM; in the experiment on RPMI-8226 leukemia, more than 100 µM; in the experiment with SR leukemia, 85.6 µM. Also, the TGI in the experiment with UACC-257 melanoma was 56.5 µM; with UACC-62 melanoma it was more than 100 µM.

With `Cc1nc(Nc2cccnc2)sc1C(=O)/C=C/c1ccc(Cl)cc1`, the GI50 in the experiment on HOP-62 NSCLC was 2.56 µM; in the experiment on HT29 colon, 2.85 µM; in the experiment with K-562 leukemia, 2.62 µM; in the experiment on OVCAR-3 ovarian, 3.27 µM; in the experiment on RPMI-8226 leukemia, 2.5 µM; in the experiment on SR leukemia, 2.3 µM. Also, the GI50 with UACC-257 melanoma was 9.22 µM; in the experiment with UACC-62 melanoma, 2.32 µM. Further, the TGI in the experiment with HOP-62 NSCLC was 7.6 µM; in the experiment on HT29 colon, 9.43 µM; in the experiment with K-562 leukemia, more than 100 µM; with OVCAR-3 ovarian, 16.2 µM; in the experiment on RPMI-8226 leukemia, 9.03 µM; in the experiment on SR leukemia, more than 100 µM. Further, the TGI was more than 100 µM with UACC-257 melanoma and 5.84 µM in the experiment on UACC-62 melanoma.

Consider `C#Cc1nc2ccccc2c(=O)[nH]1`, for which the GI50 in the experiment with HOP-62 NSCLC was 1.95 µM; with HT29 colon, 0.428 µM; with K-562 leukemia, 0.544 µM; in the experiment on OVCAR-3 ovarian, 0.262 µM; in the experiment with RPMI-8226 leukemia, 0.213 µM; with SR leukemia, 0.311 µM. Besides, the GI50 with UACC-257 melanoma was 0.505 µM; in the experiment on UACC-62 melanoma it was 0.286 µM. Besides, the TGI with HOP-62 NSCLC came out at 5.64 µM; in the experiment with HT29 colon, 1.64 µM; with K-562 leukemia, 20.4 µM; in the experiment with OVCAR-3 ovarian, 0.643 µM; in the experiment on RPMI-8226 leukemia, 0.635 µM; with SR leukemia, 2.6 µM. In addition, the TGI came out at 3.15 µM with UACC-257 melanoma and 1.03 µM in the experiment on UACC-62 melanoma.

As to `Cc1nc2c(n1C)C(=O)c1ccccc1C2=O`, the GI50 was more than 100 µM in the experiment with HOP-62 NSCLC; 37.2 µM in the experiment on HT29 colon; 59.3 µM in the experiment with K-562 leukemia; 25.2 µM with OVCAR-3 ovarian; more than 100 µM in the experiment on RPMI-8226 leukemia; 48.9 µM with SR leukemia. The GI50 in the experiment on UACC-257 melanoma was 29.4 µM; with UACC-62 melanoma it was 56 µM. Further, the TGI in the experiment on HOP-62 NSCLC was more than 100 µM; in the experiment on HT29 colon it was more than 100 µM; in the experiment with K-562 leukemia it was more than 100 µM; in the experiment with OVCAR-3 ovarian, 68.6 µM; with RPMI-8226 leukemia it was more than 100 µM; in the experiment with SR leukemia, more than 100 µM. For the same molecule, the TGI in the experiment on UACC-257 melanoma and in the experiment on UACC-62 melanoma was more than 100 µM in each case.

With `Cc1cc(N=C2C=C(Br)C(=O)C(Br)=C2)cc(CN(CC(=O)O)CC(=O)O)c1O`, the TGI in the experiment on HOP-62 NSCLC, with HT29 colon, with K-562 leukemia, in the experiment on OVCAR-3 ovarian, in the experiment with RPMI-8226 leukemia and with SR leukemia was more than 100 µM throughout. The TGI with UACC-257 melanoma and with UACC-62 melanoma was more than 100 µM in each case.

With `COC(=O)C1C(O)C(C)C(O)C(C)C=C(C)C2=C3C(=C(C)C(=O)c4c(O)c(c(C)c(OC(C)=O)c43)NC(=O)C(C)=C/C=C\C(C)C(O)C(C)C1O)OCO2` (stereo unspecified), the TGI is more than 100 µM in the experiment with HOP-62 NSCLC; 70.2 µM in the experiment with HT29 colon; 47.5 µM in the experiment with K-562 leukemia; 53 µM in the experiment on OVCAR-3 ovarian; 55.3 µM in the experiment on RPMI-8226 leukemia; 47.6 µM in the experiment with SR leukemia. Besides, the TGI in the experiment with UACC-257 melanoma was 37.4 µM; in the experiment on UACC-62 melanoma, 74.5 µM.

Regarding `O=C1CCC(N2C(=O)c3ccccc3C2=O)C(=O)N1` (stereo unspecified), the TGI in the experiment with HOP-62 NSCLC, in the experiment on HT29 colon, in the experiment on K-562 leukemia, with OVCAR-3 ovarian, in the experiment with RPMI-8226 leukemia and with SR leukemia was more than 100 µM throughout. In addition, the TGI in the experiment with UACC-257 melanoma and in the experiment on UACC-62 melanoma was more than 100 µM in each case. Further, the GI50 in the experiment with HT29 colon and with OVCAR-3 ovarian was more than 100 µM throughout.

Consider `O=c1[nH]c2nc(NC3CCOCC3)ncc2cc1Oc1ccc(F)cc1F`, for which the GI50 with HOP-62 NSCLC, in the experiment with HT29 colon, with K-562 leukemia, in the experiment with OVCAR-3 ovarian, with RPMI-8226 leukemia and in the experiment on SR leukemia was more than 25 µM each time. Moreover, the GI50 with UACC-257 melanoma and in the experiment on UACC-62 melanoma was more than 25 µM in each case. The TGI in the experiment on HOP-62 NSCLC, in the experiment on HT29 colon, in the experiment on K-562 leukemia, with OVCAR-3 ovarian, in the experiment with RPMI-8226 leukemia and with SR leukemia was more than 25 µM in each case. The TGI with UACC-257 melanoma and in the experiment on UACC-62 melanoma was more than 25 µM throughout.

Values taken from PubChem BioAssay (NCI).
